Test results from patent publication US5254459A, “Nucleotide and amino acid sequences of protein MTP40 of M. tuberculosis and synthetic peptides derived therefrom” (priority 1992, dated 1993).
No end group written: not given here.

Tested on: sera from tuberculosis patients
Test: ELISA recognition of synthetic MTP40 peptides by human sera
Type: binding
Conditions: sera from active tuberculosis patients having B(+) sputum; peptide coated at 3 micrograms per well

Question: “WLKLGLVEFGGVAKLNAEVMS [S698, synthetic peptide derived from M. tuberculosis MTP40 protein]” was tested. Which “percentage of sera recognizing the peptide (ELISA)” value did it give?
Answer: The value was 20.8%.
